This note sets out measurements from ChEMBL document CHEMBL3352098, “A class of 4-sulfamoylphenyl-ω-aminoalkyl ethers with effective carbonic anhydrase inhibitory action and antiglaucoma effects” (J Med Chem, 2014).

The structures appear in SMILES notation. pKi: −log10 of the molar value. Active and inactive are the calls of the source. No cut-off for these calls is given here.

For one assay, the target named is Carbonic anhydrase 9 (Homo sapiens, UniProt Q16790). Kind of assay: Inhibition of human CA-9 by stopped flow CO2 hydrase assay.
Settings: not given
The molecule `CC(C)(C)OC(=O)NCCCCCOc1ccc(S(N)(=O)=O)cc1` gave a negative logarithm of the Ki (pKi) of 8.15.
On the same count and under the same terms, in the case of `NCCCCCOc1ccc(S(N)(=O)=O)cc1` it was 8.18; in that of `NS(=O)(=O)c1ccc(OCCCCNC(=S)Nc2ccc(-c3c4ccc(=O)cc-4oc4cc(O)ccc34)c(C(=O)O)c2)cc1`, 8.06; in that of `CC(C)(C)OC(=O)NCCCOc1ccc(S(N)(=O)=O)cc1`, 8.24.
On the same count and under the same terms, the value for `CN(C)c1ccc2c(-c3ccc(NC(=S)NCCCOc4ccc(S(N)(=O)=O)cc4)cc3C(=O)O)c3ccc(=[N+](C)C)cc-3oc2c1` was 8.10; that for `CC(C)(C)OC(=O)NCCOc1ccc(S(N)(=O)=O)cc1` was 8.08; that for `CC(C)(C)OC(=O)NCCCCCCOc1ccc(S(N)(=O)=O)cc1` was 8.16.
On the same count and under the same terms, in the case of `NCCOc1ccc(S(N)(=O)=O)cc1` it was 8.06; in that of `NCCCOc1ccc(S(N)(=O)=O)cc1`, 7.75.
Molecule `NS(=O)(=O)c1ccc(OCCNC(=S)Nc2ccc(-c3c4ccc(=O)cc-4oc4cc(O)ccc34)c(C(=O)O)c2)cc1` had a pKi of 8.07.
As to `NCCCCOc1ccc(S(N)(=O)=O)cc1`, the negative logarithm of the Ki (pKi) was 7.49.
On the same count and under the same terms, the value for `CN(C)c1ccc2c(-c3ccc(NC(=S)NCCOc4ccc(S(N)(=O)=O)cc4)cc3C(=O)O)c3ccc(=[N+](C)C)cc-3oc2c1` was 8.02; that for `NS(=O)(=O)c1ccc(OCCCNC(=S)Nc2ccc(-c3c4ccc(=O)cc-4oc4cc(O)ccc34)c(C(=O)O)c2)cc1` was 8.14.
Still for that read-out and setting: in the case of `NCCCCCCOc1ccc(S(N)(=O)=O)cc1` it was 8.19.

A further assay deals with Oryctolagus cuniculus. The experiment in a line: Antiglaucoma activity in New Zealand albino rabbit assessed as reduction in hypertonic saline-induced intraocular pressure at 2% solution administered topically measured after 2 hrs. It is filed as functional, organism-based. The following applies: Eye.
On to `CC(C)(C)OC(=O)NCCCCOc1ccc(S(N)(=O)=O)cc1`, for which the result was Active.
Same read-out and setting: in the case of `NCCCCOc1ccc(S(N)(=O)=O)cc1` it was “Active”.

As a reminder, the pKi is −log10 of the Ki, conventionally taken in molar units. The low end stands for a high Ki, the high end for a low Ki.
